Where two headings read alike, the source gives them in different places.

Consider two molecules from patent US10172581B2, “Methods of assessing tumor growth” (Dana-Farber Cancer Institute, Inc., priority 2013, dated 2019).

The test system of test [1] is stage IV lung adenocarcinoma. As to the kind of experiment: CT follow-up of a lung adenocarcinoma patient on crizotinib (FIG. 4). Particulars: person, 8 weeks. Format: in vivo, human.
Test [2] concerns NSCLC with sensitizing EGFR mutations (dominant measurable lung lesion). Particulars: for tumor volume: same patient.
Protocol: Patients provided informed consent and their records were retrospectively reviewed with IRB approval.
Baseline and follow-up CT scans were performed to determine response to EGFR-TKI using the clinical chest CT protocol [31]. Follow-up CT scans were performed every 8 weeks for 33 patients enrolled in prospective trials of EGFR-TKI, and at the discretion of the treating providers for 25 patients treated off protocol [5,25,45-47]. […] The nadir (the smallest tumor volume recorded from baseline to TKI termination/last follow-up) was determined for each patient.
1, 2012, were analyzed. Demographics and disease characteristics were summarized with descriptive statistics. A linear mixed effects model, fitting time as a random effect [48], was fitted to the repeated measures of volume data to estimate the effect of time and other prognostic factors on tumor growth. The tumor volume (mm^3) was transformed to the natural logarithm scale, and the logarithm of tumor volume (logeV) was used. The first model was built adjusting only for time in months from baseline. Since the baseline volume (logeV0; the tumor volume measured on the baseline scan performed before the initiation of TKI therapy) may influence the tumor volume and its growth rate, the second model was adjusted for time and logeV0.

As for `C[C@@H](Oc1cc(-c2cnn(C3CCNCC3)c2)cnc1N)c1c(Cl)ccc(F)c1Cl` [crizotinib], the “change of lung lesion on CT” value in test [1] was “marked decrease of the lesion and nodular pericardial thickening”.
For the molecule `C#Cc1cccc(Nc2ncnc3cc(OCCOC)c(OCCOC)cc23)c1` [erlotinib], the “tumor volume at nadir” value in test [2] (person, stage IV lung adenocarcinoma, 4 month of therapy, baseline 25,016 mm^3) was 5,288 mm^3. The tumor volume in test [2] (5 month, regrowth after nadir) is reported as 7,490 mm^3; in test [2] (7 month), 12,922 mm^3.
